Laboratory results published in ChEMBL document CHEMBL5543122, “Discovery of HC-7366: An Orally Bioavailable and Efficacious GCN2 Kinase Activator” (J Med Chem, 2024).
Converted amounts (≈) assume the structure as drawn.

How the values were obtained:
[1] = Unbound fraction in Sprague-Dawley rat plasma at 1 mg/kg, iv measured upto 24 hrs; format: ADME, organism-based
[2] = Cmax in Sprague-Dawley rat at 3 mg/kg, po measured upto 24 hrs; format: ADME, organism-based; settings: in vivo
[3] = biological target: T1, Eukaryotic translation initiation factor 2-alpha kinase 3 (Homo sapiens, UniProt Q9NZJ5); assay: Inhibition of PEK in human MOLM16 cells; format: cell-based
T1 sequence (Q9NZJ5 whole entry): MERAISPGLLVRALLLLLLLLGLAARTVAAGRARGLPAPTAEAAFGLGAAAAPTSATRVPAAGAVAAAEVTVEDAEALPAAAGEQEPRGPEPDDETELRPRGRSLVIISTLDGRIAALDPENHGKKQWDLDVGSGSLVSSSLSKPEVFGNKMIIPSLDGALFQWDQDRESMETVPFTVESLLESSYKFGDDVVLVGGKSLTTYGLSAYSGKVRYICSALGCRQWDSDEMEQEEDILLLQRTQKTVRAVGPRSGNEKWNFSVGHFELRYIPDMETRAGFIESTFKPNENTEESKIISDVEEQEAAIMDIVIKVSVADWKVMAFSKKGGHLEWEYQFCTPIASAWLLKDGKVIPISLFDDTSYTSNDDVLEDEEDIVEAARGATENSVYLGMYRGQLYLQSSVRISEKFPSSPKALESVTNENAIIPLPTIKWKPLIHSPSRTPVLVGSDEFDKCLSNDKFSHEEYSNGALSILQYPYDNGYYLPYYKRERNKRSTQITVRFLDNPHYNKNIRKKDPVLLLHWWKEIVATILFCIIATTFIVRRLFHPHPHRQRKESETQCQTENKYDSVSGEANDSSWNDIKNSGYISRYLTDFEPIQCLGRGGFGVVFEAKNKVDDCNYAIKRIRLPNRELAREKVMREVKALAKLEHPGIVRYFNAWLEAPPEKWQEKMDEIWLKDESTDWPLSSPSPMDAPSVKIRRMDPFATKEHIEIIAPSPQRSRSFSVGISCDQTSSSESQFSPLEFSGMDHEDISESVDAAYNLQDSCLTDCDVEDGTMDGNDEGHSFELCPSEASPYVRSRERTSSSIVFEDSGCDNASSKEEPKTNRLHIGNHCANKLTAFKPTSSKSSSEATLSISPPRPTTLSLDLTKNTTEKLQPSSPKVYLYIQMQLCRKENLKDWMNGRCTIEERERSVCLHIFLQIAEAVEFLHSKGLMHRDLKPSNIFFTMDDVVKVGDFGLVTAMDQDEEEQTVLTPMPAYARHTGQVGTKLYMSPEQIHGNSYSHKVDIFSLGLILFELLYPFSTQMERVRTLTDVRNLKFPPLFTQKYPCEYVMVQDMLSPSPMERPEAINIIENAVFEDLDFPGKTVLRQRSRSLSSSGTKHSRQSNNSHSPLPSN

[4] = Unbound Cmax in Sprague-Dawley rat at 3 mg/kg, po measured upto 24 hrs; format: ADME, organism-based; settings: in vivo
[5] = Antitumor activity against human MOLM16 cells xenografted in BALB/c nude mouse assessed as tumor growth inhibition at 0.3 mg/kg administered twice a day for 17 days; format: functional, MOLM-16; settings: MOLM16, 408 h, time 17 day, read-out: TGI
[6] = Intrinsic clearance in human hepatocytes assessed per 10^4 cells at 1 uM measured upto 120 mins by UPLC-MS/MS analysis; format: ADME, cell-based, Hepatocyte; settings: 2 h
[7] = biological target: Phosphatidylinositol 4-phosphate 3-kinase C2 domain-containing subunit beta (Homo sapiens, UniProt O00750); assay: Inhibition of PIK3C2B in human MOLM16 cells; format: cell-based
[8] = Unbound Cmax in BALB/c mouse at 3 mg/kg, po and 1 mg/kg, iv measured upto 24 hrs; format: ADME, organism-based; settings: in vivo
[9] = biological target: Mitogen-activated protein kinase kinase kinase 20 (Homo sapiens, UniProt Q9NYL2); assay: Inhibition of ZAK in human MOLM16 cells; format: cell-based
[10] = Unbound clearance in Sprague-Dawley rat plasma at 1 mg/kg, iv measured upto 24 hrs; format: ADME, organism-based; settings: in vivo
[11] = Apparent permeability across apical to basolateral in human Caco-2 cells at 5 uM measured after 120 mins by UPLC-MS/MS analysis
[12] = Half-life in Sprague-Dawley rat at 1 mg/kg, iv measured upto 24 hrs; format: ADME, organism-based; settings: in vivo
[13] = Volume of distribution at steady state in BALB/c mouse at 3 mg/kg, po and 1 mg/kg, iv measured upto 24 hrs; format: ADME, organism-based; settings: in vivo
[14] = Oral bioavailability in BALB/c mouse at 3 mg/kg measured upto 24 hrs; format: ADME, organism-based; settings: in vivo
[15] = Oral bioavailability in Sprague-Dawley rat at 3 mg/kg measured upto 24 hrs; format: ADME, organism-based; settings: in vivo, po, 3 mg/kg, 24 h
[16] = Antitumor activity against human MOLM16 cells xenografted in BALB/c nude mouse assessed as tumor growth inhibition at 1 mg/kg administered twice a day for 17 days; format: functional, MOLM-16; settings: MOLM16, 408 h, time 17 day, read-out: TGI
Cytochrome P450 3A4 = Cytochrome P450 3A4 (Homo sapiens, UniProt P08684); assay: Inhibition of CYP3A4 in human liver microsomes using midazolam substrate incubated for 5 mins in presence of NADPH by UPLC-MS/MS analysis
HT-1080 = assay: Antitumor activity against human HT-1080 cells xenografted in BALB/c nude mouse assessed as mean tumor growth inhibition at 1 mg/kg administered twice a day for 14 days; format: functional; settings: HT-1080, 336 h, time 14 day, read-out: TGI
[17] = Cmax in BALB/c mouse at 3 mg/kg, po and 1 mg/kg, iv measured upto 24 hrs; format: ADME, organism-based; settings: in vivo
physchem [18] = settings: FaSSIF
Description: Thermodynamic solubility in FaSSIF at 1 mg incubated for 24 hrs by UPLC-MS/MS analysis

physchem [19] = settings: SGF
Description: Thermodynamic solubility in SGF at 1 mg incubated for 24 hrs by UPLC-MS/MS analysis

[20] = Unbound AUC in Sprague-Dawley rat at 3 mg/kg, po measured upto 24 hrs; format: ADME, organism-based; settings: in vivo
[21] = biological target: Receptor-interacting serine/threonine-protein kinase 3 (Homo sapiens, UniProt Q9Y572); assay: Inhibition of RIPK3 in human MOLM16 cells; format: cell-based
[22] = Protein binding in HEK293 cells assessed as free fraction; format: ADME, cell-based; settings: human
[23] = Antitumor activity against human MOLM16 cells xenografted in BALB/c nude mouse assessed as tumor growth inhibition at 3 mg/kg administered twice a day for 17 days; format: functional, MOLM-16; settings: MOLM16, 408 h, time 17 day, read-out: TGI
[24] = Half-life in BALB/c mouse at 3 mg/kg, po and 1 mg/kg, iv measured upto 24 hrs; format: ADME, organism-based; settings: in vivo
[25] = Unbound fraction in BALB/c mouse plasma at 3 mg/kg, po and 1 mg/kg, iv measured upto 24 hrs; format: ADME, organism-based
[26] = Intrinsic clearance in rat hepatocytes assessed per 10^4 cells at 1 uM measured upto 120 mins by UPLC-MS/MS analysis; format: ADME, cell-based, Hepatocyte; settings: 2 h
[27] = Toxicity in BALB/c nude mouse xenografted with human MOLM16 cells assessed as change in body weight at 0.3 to 3 mg/kg administered twice a day for 17 days; format: organism-based; settings: in vivo, 408 h, dose 0.3-3 mg/kg, time 17 day
[28] = Unbound volume of distribution at steady state in Sprague-Dawley rat at 1 mg/kg, iv measured upto 24 hrs; format: ADME, organism-based; settings: in vivo
[29] = Unbound AUC in BALB/c mouse at 3 mg/kg, po measured upto 24 hrs; format: ADME, organism-based; settings: in vivo

Chain of Cytochrome P450 3A4 (P08684 whole entry): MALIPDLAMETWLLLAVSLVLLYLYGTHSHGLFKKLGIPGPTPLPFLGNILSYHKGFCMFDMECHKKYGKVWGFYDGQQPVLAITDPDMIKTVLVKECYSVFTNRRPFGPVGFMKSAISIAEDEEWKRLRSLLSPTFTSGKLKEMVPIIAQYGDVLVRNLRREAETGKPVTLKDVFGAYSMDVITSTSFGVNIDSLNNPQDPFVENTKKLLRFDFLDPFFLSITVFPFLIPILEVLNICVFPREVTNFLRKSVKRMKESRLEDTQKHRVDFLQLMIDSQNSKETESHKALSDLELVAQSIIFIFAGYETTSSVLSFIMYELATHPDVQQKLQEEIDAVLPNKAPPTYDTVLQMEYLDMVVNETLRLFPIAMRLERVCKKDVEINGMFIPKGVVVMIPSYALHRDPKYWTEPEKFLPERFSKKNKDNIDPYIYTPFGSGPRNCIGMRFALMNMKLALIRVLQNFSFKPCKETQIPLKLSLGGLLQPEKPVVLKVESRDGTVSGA
Chain of Receptor-interacting serine/threonine-protein kinase 3 (Q9Y572 whole entry): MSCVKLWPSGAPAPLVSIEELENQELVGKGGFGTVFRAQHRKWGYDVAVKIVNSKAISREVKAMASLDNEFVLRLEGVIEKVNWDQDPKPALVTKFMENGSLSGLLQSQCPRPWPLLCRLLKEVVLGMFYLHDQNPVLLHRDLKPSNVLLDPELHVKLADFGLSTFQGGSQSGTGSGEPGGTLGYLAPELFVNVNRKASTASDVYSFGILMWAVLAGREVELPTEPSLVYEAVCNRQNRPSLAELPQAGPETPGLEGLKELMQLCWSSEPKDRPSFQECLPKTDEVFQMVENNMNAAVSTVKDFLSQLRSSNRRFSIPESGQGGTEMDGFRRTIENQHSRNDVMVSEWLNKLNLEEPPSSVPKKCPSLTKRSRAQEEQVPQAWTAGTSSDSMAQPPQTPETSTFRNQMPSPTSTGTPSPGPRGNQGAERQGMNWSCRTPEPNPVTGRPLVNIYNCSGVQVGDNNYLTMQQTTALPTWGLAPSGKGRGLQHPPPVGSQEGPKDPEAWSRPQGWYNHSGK
Chain of Mitogen-activated protein kinase kinase kinase 20 (Q9NYL2 whole entry): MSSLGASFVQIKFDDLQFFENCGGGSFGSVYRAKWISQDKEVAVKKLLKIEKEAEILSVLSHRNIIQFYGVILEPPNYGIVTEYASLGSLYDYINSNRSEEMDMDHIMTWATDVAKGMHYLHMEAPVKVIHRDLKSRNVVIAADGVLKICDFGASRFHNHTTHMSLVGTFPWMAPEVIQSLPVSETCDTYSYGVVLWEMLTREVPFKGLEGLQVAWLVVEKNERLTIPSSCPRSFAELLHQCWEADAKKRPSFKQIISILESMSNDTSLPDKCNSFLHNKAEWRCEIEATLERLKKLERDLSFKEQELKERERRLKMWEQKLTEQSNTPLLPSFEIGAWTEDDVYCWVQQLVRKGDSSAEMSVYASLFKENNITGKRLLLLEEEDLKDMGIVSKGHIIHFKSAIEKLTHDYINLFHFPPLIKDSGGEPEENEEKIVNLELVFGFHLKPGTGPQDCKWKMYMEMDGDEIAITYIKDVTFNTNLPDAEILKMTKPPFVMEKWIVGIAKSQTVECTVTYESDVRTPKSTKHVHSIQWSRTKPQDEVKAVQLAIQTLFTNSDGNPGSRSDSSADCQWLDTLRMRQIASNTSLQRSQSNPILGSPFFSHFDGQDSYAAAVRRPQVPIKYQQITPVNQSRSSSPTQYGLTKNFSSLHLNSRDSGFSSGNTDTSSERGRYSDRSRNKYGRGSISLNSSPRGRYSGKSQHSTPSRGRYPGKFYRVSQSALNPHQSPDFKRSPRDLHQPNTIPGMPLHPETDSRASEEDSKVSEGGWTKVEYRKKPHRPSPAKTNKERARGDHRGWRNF
Chain of Phosphatidylinositol 4-phosphate 3-kinase C2 domain-containing subunit beta (O00750 whole entry, the tested form may be a part): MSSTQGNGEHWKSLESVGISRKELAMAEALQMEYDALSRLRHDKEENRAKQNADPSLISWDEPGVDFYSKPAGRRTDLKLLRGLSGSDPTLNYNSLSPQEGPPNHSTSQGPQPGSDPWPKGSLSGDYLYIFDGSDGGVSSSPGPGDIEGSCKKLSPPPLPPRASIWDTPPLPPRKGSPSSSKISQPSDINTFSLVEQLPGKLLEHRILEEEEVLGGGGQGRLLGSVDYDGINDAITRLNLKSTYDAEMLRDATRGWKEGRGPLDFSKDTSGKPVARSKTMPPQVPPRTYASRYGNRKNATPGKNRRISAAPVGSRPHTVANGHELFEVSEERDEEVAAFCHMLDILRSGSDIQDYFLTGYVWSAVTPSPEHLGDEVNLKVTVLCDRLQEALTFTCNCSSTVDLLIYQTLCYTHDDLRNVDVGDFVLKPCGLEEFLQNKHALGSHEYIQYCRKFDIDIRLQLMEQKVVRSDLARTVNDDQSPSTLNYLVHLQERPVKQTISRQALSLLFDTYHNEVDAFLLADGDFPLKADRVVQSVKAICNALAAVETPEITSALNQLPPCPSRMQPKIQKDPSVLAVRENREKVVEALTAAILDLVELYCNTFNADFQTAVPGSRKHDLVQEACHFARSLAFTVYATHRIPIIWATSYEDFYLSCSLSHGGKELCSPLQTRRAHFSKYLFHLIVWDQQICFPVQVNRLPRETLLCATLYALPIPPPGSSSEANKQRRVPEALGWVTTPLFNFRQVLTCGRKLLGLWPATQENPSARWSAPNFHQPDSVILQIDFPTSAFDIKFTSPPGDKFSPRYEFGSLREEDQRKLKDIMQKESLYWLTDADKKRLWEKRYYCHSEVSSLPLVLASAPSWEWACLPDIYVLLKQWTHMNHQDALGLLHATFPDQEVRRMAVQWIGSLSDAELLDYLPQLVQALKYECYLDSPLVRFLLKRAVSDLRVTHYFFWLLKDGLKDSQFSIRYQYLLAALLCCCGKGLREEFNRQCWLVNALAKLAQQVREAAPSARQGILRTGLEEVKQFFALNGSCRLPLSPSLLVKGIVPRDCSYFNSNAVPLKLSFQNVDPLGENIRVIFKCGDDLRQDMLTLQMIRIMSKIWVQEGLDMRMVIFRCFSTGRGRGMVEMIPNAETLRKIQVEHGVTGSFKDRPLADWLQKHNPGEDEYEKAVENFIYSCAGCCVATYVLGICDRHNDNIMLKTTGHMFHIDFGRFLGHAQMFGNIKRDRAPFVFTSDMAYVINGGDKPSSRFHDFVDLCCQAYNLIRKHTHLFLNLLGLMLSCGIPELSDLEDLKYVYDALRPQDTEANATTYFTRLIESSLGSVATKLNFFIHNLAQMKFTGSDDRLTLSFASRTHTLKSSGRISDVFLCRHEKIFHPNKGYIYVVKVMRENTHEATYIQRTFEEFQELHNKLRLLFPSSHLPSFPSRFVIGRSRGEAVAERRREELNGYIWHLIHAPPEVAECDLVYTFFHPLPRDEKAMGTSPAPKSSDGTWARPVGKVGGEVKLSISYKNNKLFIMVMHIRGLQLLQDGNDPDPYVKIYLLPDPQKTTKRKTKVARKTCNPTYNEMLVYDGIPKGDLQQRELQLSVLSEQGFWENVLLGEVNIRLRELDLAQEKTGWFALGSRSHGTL

- fraction unbound at 24 h [1]: 0.001
- Cmax [2]: 10.1 µM
- IC50 [3]: 5.2 µM
- fCmax [4]: 7.1 nM
- CLH [6]: 4.7 µL/min
- IC50 [7]: 3.4 µM
- fCmax [8]: 52 nM
- IC50 [9]: 0.047 µM
- CL free [10]: 290 mL/min/kg
- Papp A→B at 2 h, 5 µM [11]: 9.7 ×10⁻⁶ cm/s
- half-life [12]: 6.3 h
- Vdss [13]: 0.12 L/kg
- F [14]: 66%
- F [15]: 29%
- IC50 (Cytochrome P450 3A4): 33 µM
- Cmax [17]: 26.1 µM
- solubility thermodynamic at 24 h (physchem [18]): 1.8 µM (≈ 0.916 µg/mL)
- solubility thermodynamic at 24 h (physchem [19]): 0.89 µM (≈ 0.453 µg/mL)
- fAUC [20]: 0.048 µM·h
- IC50 [21]: 9 µM
- fraction unbound [22]: 0.35
- half-life [24]: 10 h
- fraction unbound at 24 h [25]: 0.002
- CLH [26]: 3.5 µL/min
- fVdss [28]: 130 L/kg
- fAUC [29]: 0.13 µM·h
Compound: CNC(=O)c1ncn2cc(-c3c(F)ccc(NS(=O)(=O)c4cc(Cl)cnc4OC)c3F)ncc12
- inhibition in vivo at 0.3 mg/kg [5]: 66%
- inhibition in vivo at 1 mg/kg [16]: 97%
- inhibition in vivo at 1 mg/kg (HT-1080): 80%
- inhibition in vivo at 3 mg/kg [23]: 98%
- Activity [27]: Non-Toxic
